This assay has as its system NLRP3 inflammasome. In words: NLRP3 inflammasome activation: ASC-SPECK formation in gramicidin-stimulated THP-1 cells. Type of assay: cell-based. The conditions noted are these: PMA-treated human monocytic THP-1 cells, compound 1 h before 12.5 μg/ml gramicidin, 3-hour treatment. The method in brief: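 Undifferentiated human THP-1 cells primed overnight with 10 ng/ml PMA, then given compounds 1 h before 12.5 μg/ml gramicidin for 3 h at 37° C in RPMI with 0.01% BSA. Fixed cells immunostained for ASC with DRAQ5 nuclear counterstain; DRAQ5-positive cells with ASC specks counted by high-content imaging; EC50 from curve fitting.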

Setting [1] is: inhibition of ASC SPECK formation.
Where [2] appears, read: Homo sapiens, THP-1, inhibition of ASC SPECK formation.

Among the data in patent US20250195511A1, “INDAZOLE DERIVATIVES USEFUL AS INHIBITORS OF NOD-LIKE RECEPTOR PROTEIN 3” (Merck Sharp & Dohme LLC, priority 2023, published 2025) are EC50 values, retold here.

Structures are written as SMILES.

What is called EC50 is the concentration that produces a half-maximal response.

Consider `Cc1cc(C(F)(F)F)cc(O)c1-c1cnc2c(C)n(C3CCC(=O)NC3)nc2n1` (single isomer, unassigned) [Example 108, (R or S)-5-(6-(2-hydroxy-6-methyl-4-(trifluoromethyl)phenyl)-3-methyl-2H-pyrazolo[3,4-b]pyrazin-2-yl)piperidin-2-one], for which the EC50 under setting [1] is 0.066 µM. Same read-out and setting: the figure for `Cc1cc(C(F)(F)F)cc(O)c1-c1cnc2c(C)n(C3CCC(=O)NC3)nc2n1` (single isomer, unassigned) [Example 109, (S or R)-5-(6-(2-hydroxy-6-methyl-4-(trifluoromethyl)phenyl)-3-methyl-2H-pyrazolo[3,4-b]pyrazin-2-yl)piperidin-2-one] is 0.279 µM. Still for that read-out and setting: the same measure for `Cc1nc2cn(C3CCC(=O)N(C)C3)nc2nc1-c1ccc(C(F)(F)F)cc1O` (single isomer, unassigned) [Example 111, (R or S)-5-(6-(2-hydroxy-4-(trifluoromethyl)phenyl)-5-methyl-2H-pyrazolo[3,4-b]pyrazin-2-yl)-1-methylpiperidin-2-one]: 0.175 µM; for `Cc1nc2cn(C3CCC(=O)N(C)C3)nc2nc1-c1ccc(C(F)(F)F)cc1O` (single isomer, unassigned) [Example 112, (S or R)-5-(6-(2-hydroxy-4-(trifluoromethyl)phenyl)-5-methyl-2H-pyrazolo[3,4-b]pyrazin-2-yl)-1-methylpiperidin-2-one]: 0.605 µM.

With `CCOCOc1cc(C(F)(F)F)cc(C)c1-c1cnc2c([C@H](C)O)n(C[C@H]3CC(=O)N(C4CC4)C3)nc2n1` (single isomer, unassigned) [Example 113, (S or R)-1-cyclopropyl-4-((6-(2-(ethoxymethoxy)-6-methyl-4-(trifluoromethyl)phenyl)-3-((S or R)-1-hydroxyethyl)-2H-pyrazolo[3,4-b]pyrazin-2-yl)methyl)pyrrolidin-2-one], the EC50 under setting [2] was found to be 0.649 µM. Take `CCOCOc1cc(C(F)(F)F)cc(C)c1-c1cnc2c([C@@H](C)O)n(C[C@H]3CC(=O)N(C4CC4)C3)nc2n1` (single isomer, unassigned) [Example 114, (S or R)-1-cyclopropyl-4-((6-(2-(ethoxymethoxy)-6-methyl-4-(trifluoromethyl)phenyl)-3-((R or S)-1-hydroxyethyl)-2H-pyrazolo[3,4-b]pyrazin-2-yl)methyl)pyrrolidin-2-one]: under setting [2], the EC50 was 0.057 µM. The same measure, in the same setting: the figure for `CCOCOc1cc(C(F)(F)F)cc(C)c1-c1cnc2c([C@@H](C)O)n(C[C@@H]3CC(=O)N(C4CC4)C3)nc2n1` (single isomer, unassigned) [Example 115, (R or S)-1-cyclopropyl-4-((6-(2-(ethoxymethoxy)-6-methyl-4-(trifluoromethyl)phenyl)-3-((R or S)-1-hydroxyethyl)-2H-pyrazolo[3,4-b]pyrazin-2-yl)methyl)pyrrolidin-2-one] is 0.287 µM. On the same count and under the same terms, the figure for `CCOCOc1cc(C(F)(F)F)cc(C)c1-c1cnc2c([C@H](C)O)n(C[C@@H]3CC(=O)N(C4CC4)C3)nc2n1` (single isomer, unassigned) [Example 116, (R or S)-1-cyclopropyl-4-((6-(2-(ethoxymethoxy)-6-methyl-4-(trifluoromethyl)phenyl)-3-((S or R)-1-hydroxyethyl)-2H-pyrazolo[3,4-b]pyrazin-2-yl)methyl)pyrrolidin-2-one] is 0.028 µM. Turning to `Cc1cc(C(F)(F)F)cc(O)c1-c1cnc2c(C(C)O)n(C3CCC(=O)N(C(C)C)C3)nc2n1` (single isomer, unassigned) [Example 117, (S or R)-5-(6-(2-hydroxy-6-methyl-4-(trifluoromethyl)phenyl)-3-((S or R)-1-hydroxyethyl)-2H-pyrazolo[3,4-b]pyrazin-2-yl)-1-isopropylpiperidin-2-one], the concentration giving a half-maximal response (EC50) under setting [1] turned out to be 0.029 µM. Same read-out and setting: the figure for `Cc1cc(C(F)(F)F)cc(O)c1-c1cnc2c(C(C)O)n(C3CCC(=O)N(C(C)C)C3)nc2n1` (single isomer, unassigned) [Example 118, (R or S)-5-(6-(2-hydroxy-6-methyl-4-(trifluoromethyl)phenyl)-3-((S or R)-1-hydroxyethyl)-2H-pyrazolo[3,4-b]pyrazin-2-yl)-1-isopropylpiperidin-2-one] is 0.026 µM; for `Cc1cc(C(F)(F)F)cc(O)c1-c1cnc2c(C(C)O)n(C3CCC(=O)N(C(C)C)C3)nc2n1` (single isomer, unassigned) [Example 119, (R or S)-5-(6-(2-hydroxy-6-methyl-4-(trifluoromethyl)phenyl)-3-((R or S)-1-hydroxyethyl)-2H-pyrazolo[3,4-b]pyrazin-2-yl)-1-isopropylpiperidin-2-one] it is 0.291 µM; for `Cc1cc(C(F)(F)F)cc(O)c1-c1cnc2c(C(C)O)n(C3CCC(=O)N(C(C)C)C3)nc2n1` (single isomer, unassigned) [Example 120, (S or R)-5-(6-(2-hydroxy-6-methyl-4-(trifluoromethyl)phenyl)-3-((R or S)-1-hydroxyethyl)-2H-pyrazolo[3,4-b]pyrazin-2-yl)-1-isopropylpiperidin-2-one] it is 3.88 µM. `Cc1cc(C(F)(F)F)cc(O)c1-c1cnc2cn(C3CCOCC3)nc2n1` [Example 1, 3-methyl-2-(2-(tetrahydro-2H-pyran-4-yl)-2H-pyrazolo[3,4-b]pyrazin-6-yl)-5-(trifluoromethyl)phenol]: the half-maximal effective concentration (EC50) under setting [2] amounted to 0.071 µM. For `Cc1cc(C(F)(F)F)cc(O)c1-c1cnc2cn(C34CC(C3)S(=O)(=O)C4)nc2n1` [Example 2, 4-(6-(2-hydroxy-6-methyl-4-(trifluoromethyl)phenyl)-2H-pyrazolo[3,4-b]pyrazin-2-yl)-2-thiabicyclo[2.1.1]hexane 2,2-dioxide], under setting [2], the EC50 was determined as 0.05 µM. In the case of `Cc1cc(C(F)(F)F)cc(O)c1-c1cnc2cn([C@H]3CCC(=O)N(C)C3)nc2n1` [Example 5, (5S)-5-[6-[2-hydroxy-6-methyl-4-(trifluoromethyl)phenyl]pyrazolo[3,4-b]pyrazin-2-yl]-1-methyl-piperidin-2-one], the EC50 under setting [2] worked out at 0.013 µM. The same measure, in the same setting: the figure for `Cc1cc(C(F)(F)F)cc(O)c1-c1cnc2cn(C[C@@H]3CCN(C)C3)nc2n1` [Example 6, (R)-3-methyl-2-(2-((1-methylpyrrolidin-3-yl)methyl)-2H-pyrazolo[3,4-b]pyrazin-6-yl)-5-(trifluoromethyl)phenol] is 0.035 µM; for `Cc1cc(C(F)(F)F)cc(O)c1-c1cnc2cn(C[C@H]3CNC(=O)C3)nc2n1` [Example 7, (R)-4-((6-(2-hydroxy-6-methyl-4-(trifluoromethyl)phenyl)-2H-pyrazolo[3,4-b]pyrazin-2-yl)methyl)pyrrolidin-2-one] it is 0.046 µM.

`Cc1cc(C(F)(F)F)cc(O)c1-c1cnc2cn(C34CC(C#N)(C3)C4)nc2n1` [Example 8, 3-(6-(2-hydroxy-6-methyl-4-(trifluoromethyl)phenyl)-2H-pyrazolo[3,4-b]pyrazin-2-yl)bicyclo[1.1.1]pentane-1-carbonitrile]: the EC50 under setting [2] was found to be 0.038 µM.

`Cc1cc(C(F)(F)F)cc(O)c1-c1cnc2cn([C@@H]3[C@@H]4COC[C@@H]43)nc2n1` [Example 9, 2-(2-((1R,5S,6S)-3-oxabicyclo[3.1.0]hexan-6-yl)-2H-pyrazolo[3,4-b]pyrazin-6-yl)-3-methyl-5-(trifluoromethyl)phenol]: the concentration giving a half-maximal response (EC50) under setting [2] worked out at 0.059 µM. For `Cc1cc(C(F)(F)F)cc(O)c1-c1cnc2cn([C@H]3[C@@H]4COC[C@@H]43)nc2n1` [Example 10, 2-(2-((1R,5S,6R)-3-oxabicyclo[3.1.0]hexan-6-yl)-2H-pyrazolo[3,4-b]pyrazin-6-yl)-3-methyl-5-(trifluoromethyl)phenol], the concentration giving a half-maximal response (EC50) under setting [2] was 0.034 µM. Still for that read-out and setting: the figure for `Cc1cc(C(F)(F)F)cc(O)c1-c1cnc2cn([C@H]3CC[C@@H](C#N)CC3)nc2n1` [Example 11, (1S,4S)-4-(6-(2-hydroxy-6-methyl-4-(trifluoromethyl)phenyl)-2H-pyrazolo[3,4-b]pyrazin-2-yl)cyclohexane-1-carbonitrile] is 1.5 µM; for `Cc1cc(C(F)(F)F)cc(O)c1-c1cnc2cn(CC(C)(C)C#N)nc2n1` [Example 12, 3-(6-(2-hydroxy-6-methyl-4-(trifluoromethyl)phenyl)-2H-pyrazolo[3,4-b]pyrazin-2-yl)-2,2-dimethylpropanenitrile] it is 0.658 µM; for `Cc1cc(C(F)(F)F)cc(O)c1-c1cnc2cn(CC3(C#N)CCC3)nc2n1` [Example 13, 1-((6-(2-hydroxy-6-methyl-4-(trifluoromethyl)phenyl)-2H-pyrazolo[3,4-b]pyrazin-2-yl)methyl)cyclobutane-1-carbonitrile] it is 0.264 µM. Same read-out and setting: the figure for `Cc1cc(C(F)(F)F)cc(O)c1-c1cnc2cn(C34COCC(C3)C4)nc2n1` [Example 14, 2-(2-(3-oxabicyclo[3.1.1]heptan-1-yl)-2H-pyrazolo[3,4-b]pyrazin-6-yl)-3-methyl-5-(trifluoromethyl)phenol] is 0.154 µM; for `Cc1cc(C(F)(F)F)cc(O)c1-c1cnc2cn(C34CCOC(C)(C3)C4)nc2n1` [Example 15, 3-methyl-2-(2-(1-methyl-2-oxabicyclo[3.1.1]heptan-5-yl)-2H-pyrazolo[3,4-b]pyrazin-6-yl)-5-(trifluoromethyl)phenol] it is 0.084 µM; for `Cc1cc(C(F)(F)F)cc(O)c1-c1cnc2cn([C@H]3C[C@H](F)C3)nc2n1` [Example 16, 2-(2-((1R,3R)-3-fluorocyclobutyl)-2H-pyrazolo[3,4-b]pyrazin-6-yl)-3-methyl-5-(trifluoromethyl)phenol] it is 0.025 µM. As to `Cc1cc(C(F)(F)F)cc(O)c1-c1cnc2cn(C34COC(C3)C4)nc2n1` [Example 17, 2-(2-(2-oxabicyclo[2.1.1]hexan-4-yl)-2H-pyrazolo[3,4-b]pyrazin-6-yl)-3-methyl-5-(trifluoromethyl)phenol], under setting [2], the EC50 was found to be 0.055 µM.
